Results from patent US7247756B2, “1,4-disubstituted benzenes as insecticides” (Bayer CropScience AG, priority 2000, dated 2007).
Several values for one entry are separate records, joined by “and”; a condition that tells them apart may be missing. Equal values may be shown once.

Test system: tobacco budworm (Heliothis virescens [Fabricius])
Assay: surface-treated diet test against tobacco budworm
Assay type: in vivo
Settings: second instar larvae, five-day exposure
Procedure: Candidate insecticides are evaluated for activity against the tobacco budworm (Heliothis virescens [Fabricius]) in a surface-treated diet test.
In this test one mL of molten (65–70° C.) wheat germ-based artificial diet is pipetted into each well of a four by six (24 well) multi-well plate (ID#430345-15.5 mm dia.×17.6 mm deep; Corning Costar Corp., One Alewife Center, Cambridge, Mass. 02140). The diet is allowed to cool to ambient temperature before treatment with candidate insecticide.
For a determination of insecticidal activity, solutions of the candidate insecticides are prepared for testing using a Packard 204DT Multiprobe® Robotic System (Packard Instrument Company, 800 Research Parkway, Meriden, Conn. 06450), in which the robot first dilutes a standard 50 millimolar DMSO solution of candidate insecticide with a 1:1 water/acetone solution (V/V) in a ratio of 1:7 stock solution to water/acetone. The robot subsequently pipettes 40 microliters of the so-prepared solution onto the surface of the diet in each of three wells in the 24 multi-well plate. The process is repeated with solutions of seven other candidate insecticides. Once treated, the contents of the multi-well plate are allowed to dry, leaving 0.25 millimoles of candidate insecticide on the surface of the diet, or a concentration of 0.25 millimolar. Appropriate untreated controls containing only DMSO on the diet surface are also included in this test.
For evaluations of the insecticidal activity of a candidate insecticide at varying rates of application, the test is established as described above using sub-multiples of the standard 50 millimolar DMSO solution of candidate insecticide. For example, the standard 50 millimolar solution is diluted by the robot with DMSO to give 5, 0.5, 0.05, 0.005, 0.0005 millimolar, or more dilute solutions of the candidate insecticide. In these evaluations there are six replicates of each rate of application placed on the surface of the diet in the 24 multi-well plate, for a total of four rates of application of candidate insecticide in each plate.
In each well of the test plate is placed one second instar tobacco budworm larvea, each weighing approximately five milligrams. After the larvae are placed in each well, the plate is sealed with clear polyfilm adhesive tape. The tape over each well is perforated to ensure an adequate air supply. The plates are then held in a growth chamber at 25° C. and 60% relative humidity for five days (light 14 hours/day).
After the five-day exposure period insecticidal activity for each rate of application of candidate insecticide is assessed as percent inhibition of insect weight relative to the weight of insects from untreated controls, and percent mortality when compared to the total number of insects infested.

[1] = rate of application 6.6 (negative log of the molar concentration of test compound in the diet)
[2] = rate of application 5.6 (negative log of the molar concentration of test compound in the diet)
[3] = rate of application 4.6 (negative log of the molar concentration of test compound in the diet)
[4] = rate of application 3.6 (negative log of the molar concentration of test compound in the diet)

Molecule | Percent Growth Inhibition [1] | Percent Growth Inhibition [2] | other results
amino(2-(4-((5,6-dichloronaphthyloxy)methyl)phenoxy)ethyl)diethyl-1-one [Compound 183] | 28% and 18% |  | 
CCN(CC)CCOc1ccc(CNc2ccc(Cl)c3ccccc23)cc1 [Compound 84, (2-(4-(((4-chloronaphthyl)amino)methyl)phenoxy)ethyl)diethylamine] |  | 11% | 
CCN(CC)CCOc1ccc(CNc2ccc(Cl)c3ccccc23)cc1OC [Compound 263, (2-(4-(((4-chloronaphthyl)amino)methyl)-2-methoxyphenoxy)ethyl)diethylamine] |  | 26% | 
CCN(CC)CCOc1ccc(COCc2ccc(Cl)c3ccccc23)cc1 [Compound 8, (2-(4-(((4-chloronaphthyl)methoxy)methyl)phenoxy)ethyl)diethylamine] |  |  | Percent Growth Inhibition [3]: 11%
CCN1CCN(c2ccc(COc3cccc4c(Cl)c(Cl)ccc34)cc2)CC1 [Compound 355, 1,2-dichloro-5-{[4-(4-ethylpiperazinyl)phenyl]methoxy}naphthalene] | −2% | 96% | Percent Growth Inhibition [4]: 100%; Percent Mortality [4]: 100%; Percent Growth Inhibition [3]: 100%; Percent Mortality [3]: 100%; Percent Mortality [2]: 17%
CCN(CC)CCOc1ccc(COc2cccc3c(Cl)c(Cl)ccc23)cc1 [Compound 223, (2-(4-((5,6-dichloronaphthyloxy)methyl)phenoxy)ethyl)diethylamine] | 63% |  | 
CCN(CC)CCOc1ccc(COc2ccc(Cl)c3cc(Cl)ccc23)cc1 [Compound 216, (2-(4-((4,6-dichloronaphthyloxy)methyl)phenoxy)ethyl)diethylamine] | 1% |  | 
CC1CCCC(C)N1CCOc1ccc(COc2ccc(Cl)c3ccccc23)cc1 (stereo not drawn) [Compound 106, 1-(2-(2,6-dimethylpiperidyl)ethoxy)-4-((4-chloronaphthyloxy)methyl)benzene] | 35% |  | 
CCN(CC)CCOc1ccc(COc2ccc(Cl)c(Cl)c2Cl)cc1 [Compound 308, diethyl(2-(4-((2,3,4-trichlorophenoxy)methyl)phenoxy)ethyl)amine] |  | 18% | 
